24 compounds from patent US20110044938A1 (NYCOMED GMBH, priority 2006, published 2011) can be followed below.

For experiment [1], the system named is subclones of RKO colon adenocarcinoma cells (RKOp27 or RKOp21) arrested by Ponasterone A. Kind of experiment: Alamar Blue cell viability assay, cell cycle specific mode of action: cells arrested by ectopic p27Kip1 induced by Ponasterone A versus proliferating cells. It is filed as cell-based. The settings on record: Homo sapiens, RKO p27 induced (arrested) cells, 10 μM Ponasterone A, 72 hours, value = class bound given in Table A, read-out: −logIC50 RKO p27 induced (arrested) (converted). The method in brief: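 Viability of proliferating versus Ponasterone A (10 μM)-arrested RKOp27/RKOp21 cells after 72 h compound exposure at 37° C, in quadruplicate. Read-out is Alamar Blue fluorescence (544/590 nm) normalised to untreated cells = 100%; values as −log IC50.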

Experiment [2] has as its system RKO (RKOp27) human colon adenocarcinoma cells. Briefly: Alamar Blue cell viability assay, anti-proliferative/cytotoxic activity on proliferating RKO subclones. The settings on record: RKOp27, 72 h, RKO p27 uninduced (proliferating) cells, value = class bound given in Table A, read-out: −logIC50 RKO p27 uninduced (proliferating) (converted). It is filed as cell-based. The method in brief:
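Alamar Blue fluorescence (ex 544, em 590 nm) after 72 h compound exposure at 37 °C, 5% CO2, normalised to untreated controls set at 100%. Cells were seeded at 5000 per well and dosed 24 h later with serial semi-logarithmic dilutions in 10% FCS DMEM, four replicates each. −log IC50 [mol/l] was derived from concentration-effect curves.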

For `CC(C)NC(=O)OCC1CCc2c(sc(NC(=O)/C=C/c3cccnc3)c2C#N)C1` (stereo not drawn) [Example 101, Isopropyl-carbamic acid 3-cyano-2-((E)-3-pyridin-3-yl-allanoylamino)-4,5,6,7-tetrahydro-benzo[b]thiophen-6-ylmethyl ester], the IC50 in experiment [1] is no less than 100 µM; in experiment [2] it was no more than 0.501 µM.
For the compound `CC(CO)NC(=O)OCC1CCc2c(sc(NC(=O)/C=C/c3cccnc3)c2C#N)C1` (stereo not drawn) [Example 102, (2-Hydroxy-1-methyl-ethyl)-carbamic acid 3-cyano-2-((E)-3-pyridin-3-yl-allanoylamino)-4,5,6,7-tetrahydro-benzo[b]thiophen-6-ylmethyl ester], the IC50 in experiment [1] was no less than 100 µM; in experiment [2], 0.501 to 2 µM.
The corresponding values for `CCCNC(=O)OCC1CCc2c(sc(NC(=O)/C=C/c3cccnc3)c2C#N)C1` (stereo not drawn) [Example 103, Propyl-carbamic acid 3-cyano-2-((E)-3-pyridin-3-yl-allanoylamino)-4,5,6,7-tetrahydro-benzo[b]thiophen-6-ylmethyl ester] are no less than 100 µM and 0.501 to 2 µM.
The corresponding values for `N#Cc1c(NC(=O)/C=C/c2cccnc2)sc2c1CCC(COC(=O)N1CCC[C@H]1CO)C2` (stereo partly drawn) [Example 104, 2-(S)-(Hydroxymethyl) pyrrolidine-1-carboxylic acid 3-cyano-2-((E)-3-pyridin-3-yl-allanoylamino)-4,5,6,7-tetrahydro-benzo[b]thiophen-6-ylmethyl ester] are no less than 100 µM and no more than 0.501 µM.
For `N#Cc1c(NC(=O)/C=C/c2cccnc2)sc2c1CCC(COC(=O)NCC1CC1)C2` (stereo not drawn) [Example 105, Cyclopropylmethyl-carbamic acid 3-cyano-2-((E)-3-pyridin-3-yl-allanoylamino)-4,5,6,7-tetrahydro-benzo[b]thiophen-6-ylmethyl ester] the same measures were no less than 100 µM and no more than 0.501 µM.
On to `N#Cc1c(NC(=O)/C=C/c2cccnc2)sc2c1CCC(OC(=O)N[C@H]1CC[C@H](O)CC1)C2` (stereo partly drawn) [Example 106, trans-4-Hydroxycyclohexyl-carbamic acid 3-cyano-2-((E)-3-pyridin-3-yl-allanoylamino)-4,5,6,7-tetrahydro-benzo[b]thiophen-6-yl ester], for which the IC50 is no less than 100 µM in experiment [1] and 0.501 to 2 µM in experiment [2].
For `CCCNC(=O)OC1CCc2c(sc(NC(=O)/C=C/c3cccnc3)c2C#N)C1` (stereo not drawn) [Example 107, Propyl-carbamic acid 3-cyano-2-((E)-3-pyridin-3-yl-allanoylamino)-4,5,6,7-tetrahydro-benzo[b]thiophen-6-yl ester] the same measures were no less than 100 µM and no more than 0.501 µM.
Consider `N#Cc1c(NC(=O)/C=C/c2cccnc2)sc2c1CCC(OC(=O)N1CCC[C@H]1CO)C2` (stereo partly drawn) [Example 108, 2-(S)-(Hydroxymethyl) pyrrolidine-1-carboxylic acid 3-cyano-2-((E)-3-pyridin-3-yl-allanoylamino)-4,5,6,7-tetrahydro-benzo[b]thiophen-6-yl ester], for which the IC50 was no less than 100 µM in experiment [1] and 0.501 to 2 µM in experiment [2].
On to `N#Cc1c(NC(=O)/C=C/c2cccnc2)sc2c1CCC(OC(=O)NCC1CC1)C2` (stereo not drawn) [Example 109, Cyclopropylmethyl-carbamic acid 3-cyano-2-((E)-3-pyridin-3-yl-allanoylamino)-4,5,6,7-tetrahydro-benzo[b]thiophen-6-yl ester], for which the results for the IC50 in experiment [1] and in experiment [2] were no less than 100 µM and no more than 0.501 µM, respectively.
On to `N#Cc1c(NC(=O)/C=C/c2cccnc2)sc2c1CCC(OC(=O)NC1CCCC1)C2` (stereo not drawn) [Example 110, Cyclopentyl-carbamic acid 3-cyano-2-((E)-3-pyridin-3-yl-allanoylamino)-4,5,6,7-tetrahydro-benzo[b]thiophen-6-yl ester], for which the IC50 in experiment [1] is no less than 100 µM; in experiment [2], no more than 0.501 µM.
The corresponding values for `N#Cc1c(NC(=O)/C=C/c2cccnc2)sc2c1CCC(OC(=O)N1CCCCC1)C2` (stereo not drawn) [Example 111, Piperidine-1-carboxylic acid 3-cyano-2-((E)-3-pyridin-3-yl-allanoylamino)-4,5,6,7-tetrahydro-benzo[b]thiophen-6-yl ester] are no less than 100 µM and no more than 0.501 µM.
In the case of `C=CCN(C)C(=O)OCC1CCc2c(sc(NC(=O)/C=C/c3cccnc3)c2C#N)C1` (stereo not drawn) [Example 112, Allyl-methyl-carbamic acid 3-cyano-2-((E)-3-pyridin-3-yl-allanoylamino)-4,5,6,7-tetrahydro-benzo[b]thiophen-6-ylmethyl ester], the IC50 was no less than 100 µM in experiment [1] and no more than 0.501 µM in experiment [2].
For `N#Cc1c(NC(=O)/C=C/c2cccnc2)sc2c1CCC(OC(=O)N1CCCC(O)C1)C2` (stereo not drawn) [Example 113, 3-Hydroxy-piperidine-1-carboxylic acid 3-cyano-2-((E)-3-pyridin-3-yl-allanoylamino)-4,5,6,7-tetrahydro-benzo[b]thiophen-6-yl ester] the same measures were no less than 100 µM and no more than 0.501 µM.
For `N#Cc1c(NC(=O)/C=C/c2cccnc2)sc2c1CCC(COC(=O)N1CCC(O)CC1)C2` (stereo not drawn) [Example 114, 4-Hydroxy-piperidine-1-carboxylic acid 3-cyano-2-((E)-3-pyridin-3-yl-allanoylamino)-4,5,6,7-tetrahydro-benzo[b]thiophen-6-ylmethyl ester] the same measures were no less than 100 µM and no more than 0.501 µM.
For `N#Cc1c(NC(=O)/C=C/c2cccnc2)sc2c1CC[C@H](COC(=O)N1CCC(O)CC1)C2` [Example 114a, 4-Hydroxy-piperidine-1 - carboxylic acid (S)-3-cyano-2-((E)-3-pyridin-3-yl-allanoylamino)-4,5,6,7-tetrahydro-benzo[b]thiophen-6-ylmethyl ester] the same measures were no less than 100 µM and no more than 0.501 µM.
As to `N#Cc1c(NC(=O)/C=C/c2cccnc2)sc2c1CC[C@@H](COC(=O)N1CCC(O)CC1)C2` [Example 114b, 4-Hydroxy-piperidine-1-carboxylic acid (R)-3-cyano-2-((E)-3-pyridin-3-yl-allanoylamino)-4,5,6,7-tetrahydro-benzo[b]thiophen-6-ylmethyl ester], the IC50 in experiment [1] was no less than 100 µM; in experiment [2], no more than 0.501 µM.
For `COC1CN(C(=O)OCC2CCc3c(sc(NC(=O)/C=C/c4cccnc4)c3C#N)C2)C1` (stereo not drawn) [Example 115, 3-Methoxy-azetidine-1-carboxylic acid 3-cyano-2-((E)-3-pyridin-3-yl-allanoylamino)-4,5,6,7-tetrahydro-benzo[b]thiophen-6-ylmethyl ester] the same measures were no less than 100 µM and 0.501 to 2 µM.
In the case of `N#Cc1c(NC(=O)/C=C/c2cccnc2)sc2c1CCC(COC(=O)N1CCCO1)C2` (stereo not drawn) [Example 116, Isoxazolidine-2-carboxylic acid 3-cyano-2-((E)-3-pyridin-3-yl-allanoylamino)-4,5,6,7-tetrahydro-benzo[b]thiophen-6-ylmethyl ester], the IC50 in experiment [1] is no less than 100 µM; in experiment [2], no more than 0.501 µM.
For `N#Cc1c(NC(=O)/C=C/c2cccnc2)sc2c1CCC(COC(=O)N1CCCCO1)C2` (stereo not drawn) [Example 117, [1,2]Oxazinane-2-carboxylic acid 3-cyano-2-((E)-3-pyridin-3-yl-allanoylamino)-4,5,6,7-tetrahydro-benzo[b]thiophen-6-ylmethyl ester] the same measures were no less than 100 µM and no more than 0.501 µM.
For `COC1CN(C(=O)OC2CCc3c(sc(NC(=O)/C=C/c4cccnc4)c3C#N)C2)C1` (stereo not drawn) [Example 118, 3-Methoxy-azetidine-1-carboxylic acid 3-cyano-2-((E)-3-pyridin-3-yl-allanoylamino)-4,5,6,7-tetrahydro-benzo[b]thiophen-6-yl ester] the same measures were no less than 100 µM and 0.501 to 2 µM.
For `N#Cc1c(NC(=O)/C=C/c2cccnc2)sc2c1CCC(OC(=O)N1CCCO1)C2` (stereo not drawn) [Example 119, Isoxazolidine-2-carboxylic acid 3-cyano-2-((E)-3-pyridin-3-yl-allanoylamino)-4,5,6,7-tetrahydro-benzo[b]thiophen-6-yl ester] the same measures were no less than 100 µM and no more than 0.501 µM.
`N#Cc1c(NC(=O)/C=C/c2cccnc2)sc2c1CCC(OC(=O)N1CCCCO1)C2` (stereo not drawn) [Example 120, [1,2]Oxazinane-2-carboxylic acid 3-cyano-2-((E)-3-pyridin-3-yl-allanoylamino)-4,5,6,7-tetrahydro-benzo[b]thiophen-6-yl ester]: the IC50 was no less than 100 µM in experiment [1] and no more than 0.501 µM in experiment [2].
Consider `N#Cc1c(NC(=O)/C=C/c2cccnc2)sc2c1CCC(COC(=O)N1CC(F)C1)C2` (stereo not drawn) [Example 121, 3-Fluoro-azetidine-1-carboxylic acid 3-cyano-2-((E)-3-pyridin-3-yl-allanoylamino)-4,5,6,7-tetrahydro-benzo[b]thiophen-6-ylmethyl ester], for which the figures for the IC50 in experiment [1] and in experiment [2] were no less than 100 µM and no more than 0.501 µM, respectively.
For `N#Cc1c(NC(=O)/C=C/c2cccnc2)sc2c1CCC(COC(=O)N1CC[C@@H](O)[C@@H](O)C1)C2` (stereo partly drawn) [Example 122, cis-3-, 4-Dihydroxy-piperidine-1-carboxylic acid 3-cyano-2-((E)-3-pyridin-3-yl-allanoylamino)-4,5,6,7-tetrahydro-benzo[b]thiophen-6-ylmethyl ester] the same measures were no less than 100 µM and no more than 0.501 µM.
